Source: patent publication US20160320414A1, “Assay for Detection of Transient Intracellular CA2+” (Rajiv Gandhi Centre for Biotechnology, priority 2007, published 2016)

How the values were obtained:
Format in all cases: cell-based
[1] = biological target: T1, vanilloid receptor (TRPV1) (Rattus norvegicus, UniProt O35433); assay: TRPV1 receptor activity assay (GFP-CaMKII translocation to MLS-NR2B)
T1 construct: expressed in transfected cells; host or cells: HEK-293

[2] = biological target: T2, NMDA receptor formed of NR1 and NR2B subunits (Rattus norvegicus, UniProt P35439+Q00960); assay: NMDA receptor activity assay (GFP-α-CaMKII translocation signal); details: HEK-293 cells transfected with NR1, NR2B and GFP-α-CaMKII; for Ca2+ influx / translocation of GFP-α-CaMKII to NR2B upon receptor activation: glutamate 10 μM and glycine 2 μM with 2 mM CaCl2, about 5 minutes, no signal without extracellular Ca2+
T2 construct: expressed in transfected cells; host or cells: HEK-293

[3] = biological target: T3, AMPA-type glutamate receptor GluR4 (Rattus norvegicus, UniProt P19493); assay: GluR4 receptor activity assay (GFP-CaMKII translocation to MLS-NR2B)
T3 construct: expressed in transfected cells; host or cells: HEK-293
Experimental: HEK-293 cells were cotransfected with GluR4 (pRK5-GluR4, about 0.33 μg/well), MLS-NR2B (pSGH-MLS-NR2B, about 0.33 μg/well) and GFP-CaMKII (pEGFP-CaMKII, about 0.1 μg/well) using lipofectamine reagent. During growth, the medium was supplemented with 50 μM CNQX (inhibitor of AMPA receptor). After 48 hours, the transfected cells were subjected to GluR4 activity assay. The growth medium was removed and the cells were washed twice with Ca^2+ and Mg free HBSS containing 2 mM HEPES and 400 μM EGTA. The GluR4 receptor was activated with HBSS solution containing 10 μM glutamate with or without 2 mM Ca^2+ for about 5 minutes. The inhibitor, CNQX (50 μM), when used, was preincubated for 3 minutes with cells in Ca^2+ and Mg^2+-free HBSS followed by activation using the components as described above with 50 μM CNQX. Cells were then fixed and were mounted onto glass slides.

MLS-NR2B = assay: Ionomycin-mediated Ca2+-influx, cell count of cells with GFP-clustering signal; details: HEK-293 cells with MLS-NR2B
Experimental: For transfection, 1.5×10^4 HEK-293 cells were seeded on sterile 12 mm cover slips in 24 well plates (Nunc). After 24 hrs, the cells were cotransfected with plasmid constructs encoding GFP-α-CaMKII (0.1 μg/well) and either of MLS-NR2A or MLS-NR2B (0.25 μg/well), or pRK-NR2A or pRK-NR2B (along with pRc-NR1 for expression of functional NMDA receptor) using Lipofectamine reagent. About 48 hrs following transfection, cells were washed with Hank's balanced salt solution (HBSS) containing 20 mM HEPES and 1.4 mM EGTA. The cells were then incubated with 15 μM ionomycin in the same buffer for 10 min. Subsequently the cells were incubated in the same buffer containing 2 mM CaCl2 and 3 μM ionomycin. Cells were fixed with 3.7% paraformaldehyde in PBS (Phosphate-buffered saline, 10 mM disodium hydrogen phosphate, 1.8 mM potassium dihydrogen orthophosphate, 140 mM sodium chloride, 2.7 mM potassium chloride, pH adjusted to 7.4) at different time points after addition of calcium, mounted with mountant containing DABCO (antifade) and were observed through either a simple fluorescence microscope or a confocal fluorescence microscope (TCS -SP2-AOBS from Leica).
Appearance of perinuclear granules due to mitochondrial localization of GFP-α-CaMKII is taken as the signal for binding between GFP-α-CaMKII and MLS-NR2B. […]

T2 sequence (Q00960 27-1482, other chains not shown): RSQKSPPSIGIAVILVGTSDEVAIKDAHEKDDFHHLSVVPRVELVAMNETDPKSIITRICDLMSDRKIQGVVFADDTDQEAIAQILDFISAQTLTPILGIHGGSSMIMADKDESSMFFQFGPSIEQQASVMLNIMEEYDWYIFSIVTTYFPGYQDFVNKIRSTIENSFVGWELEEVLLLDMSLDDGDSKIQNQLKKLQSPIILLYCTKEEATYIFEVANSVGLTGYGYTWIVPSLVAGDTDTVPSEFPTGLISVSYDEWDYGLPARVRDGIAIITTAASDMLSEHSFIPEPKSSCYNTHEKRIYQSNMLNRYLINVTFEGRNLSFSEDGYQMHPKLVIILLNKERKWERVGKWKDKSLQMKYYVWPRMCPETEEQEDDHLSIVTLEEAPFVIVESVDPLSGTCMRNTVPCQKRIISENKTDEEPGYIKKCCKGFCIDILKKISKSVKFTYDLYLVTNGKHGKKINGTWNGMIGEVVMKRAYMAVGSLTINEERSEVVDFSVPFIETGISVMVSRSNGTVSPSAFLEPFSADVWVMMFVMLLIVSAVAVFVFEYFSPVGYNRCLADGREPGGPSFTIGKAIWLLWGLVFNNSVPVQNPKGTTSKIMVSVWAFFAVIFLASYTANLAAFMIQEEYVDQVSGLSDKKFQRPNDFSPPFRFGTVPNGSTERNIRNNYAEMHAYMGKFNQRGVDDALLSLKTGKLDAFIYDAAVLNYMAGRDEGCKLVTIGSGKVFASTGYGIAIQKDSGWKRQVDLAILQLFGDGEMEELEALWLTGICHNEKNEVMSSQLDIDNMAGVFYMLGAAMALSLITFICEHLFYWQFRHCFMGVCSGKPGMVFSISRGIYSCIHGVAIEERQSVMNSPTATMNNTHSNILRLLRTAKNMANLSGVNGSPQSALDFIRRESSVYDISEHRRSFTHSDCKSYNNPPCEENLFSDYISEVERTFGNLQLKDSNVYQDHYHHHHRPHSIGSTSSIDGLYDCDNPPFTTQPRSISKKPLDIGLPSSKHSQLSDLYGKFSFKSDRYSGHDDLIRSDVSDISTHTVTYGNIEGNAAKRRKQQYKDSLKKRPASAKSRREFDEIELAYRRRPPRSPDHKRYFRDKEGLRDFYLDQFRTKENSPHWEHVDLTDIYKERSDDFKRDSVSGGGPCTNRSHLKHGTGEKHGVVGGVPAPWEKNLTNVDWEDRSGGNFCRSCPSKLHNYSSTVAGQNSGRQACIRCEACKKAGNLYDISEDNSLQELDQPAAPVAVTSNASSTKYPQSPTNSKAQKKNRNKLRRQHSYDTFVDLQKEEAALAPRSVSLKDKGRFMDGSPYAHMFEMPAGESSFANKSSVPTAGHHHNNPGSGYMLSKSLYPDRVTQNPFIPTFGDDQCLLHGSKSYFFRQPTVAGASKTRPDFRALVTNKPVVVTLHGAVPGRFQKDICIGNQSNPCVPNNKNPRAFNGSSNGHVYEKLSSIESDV
T1 sequence (O35433 whole entry): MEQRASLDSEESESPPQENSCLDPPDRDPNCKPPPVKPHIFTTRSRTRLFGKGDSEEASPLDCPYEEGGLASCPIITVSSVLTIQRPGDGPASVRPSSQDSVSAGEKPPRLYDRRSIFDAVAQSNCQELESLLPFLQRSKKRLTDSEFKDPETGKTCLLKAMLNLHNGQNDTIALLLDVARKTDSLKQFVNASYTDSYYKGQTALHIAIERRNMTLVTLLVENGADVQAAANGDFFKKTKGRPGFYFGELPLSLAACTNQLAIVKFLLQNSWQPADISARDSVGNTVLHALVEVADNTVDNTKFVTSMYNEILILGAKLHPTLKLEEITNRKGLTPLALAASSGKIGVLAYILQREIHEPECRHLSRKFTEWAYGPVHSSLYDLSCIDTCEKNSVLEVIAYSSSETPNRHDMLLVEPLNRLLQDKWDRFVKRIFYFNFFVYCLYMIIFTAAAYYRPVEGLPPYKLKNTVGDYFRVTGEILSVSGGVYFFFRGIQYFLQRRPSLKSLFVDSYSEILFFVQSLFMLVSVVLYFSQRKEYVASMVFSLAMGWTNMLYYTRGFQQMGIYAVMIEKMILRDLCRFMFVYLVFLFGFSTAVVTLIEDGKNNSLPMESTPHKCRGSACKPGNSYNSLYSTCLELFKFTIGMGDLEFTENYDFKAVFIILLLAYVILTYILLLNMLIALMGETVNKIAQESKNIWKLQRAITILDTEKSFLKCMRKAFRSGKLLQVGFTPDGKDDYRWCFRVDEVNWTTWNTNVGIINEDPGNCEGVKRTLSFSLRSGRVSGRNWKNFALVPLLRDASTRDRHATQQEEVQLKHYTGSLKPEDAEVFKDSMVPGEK
T3 sequence (P19493 22-902 limits assumed): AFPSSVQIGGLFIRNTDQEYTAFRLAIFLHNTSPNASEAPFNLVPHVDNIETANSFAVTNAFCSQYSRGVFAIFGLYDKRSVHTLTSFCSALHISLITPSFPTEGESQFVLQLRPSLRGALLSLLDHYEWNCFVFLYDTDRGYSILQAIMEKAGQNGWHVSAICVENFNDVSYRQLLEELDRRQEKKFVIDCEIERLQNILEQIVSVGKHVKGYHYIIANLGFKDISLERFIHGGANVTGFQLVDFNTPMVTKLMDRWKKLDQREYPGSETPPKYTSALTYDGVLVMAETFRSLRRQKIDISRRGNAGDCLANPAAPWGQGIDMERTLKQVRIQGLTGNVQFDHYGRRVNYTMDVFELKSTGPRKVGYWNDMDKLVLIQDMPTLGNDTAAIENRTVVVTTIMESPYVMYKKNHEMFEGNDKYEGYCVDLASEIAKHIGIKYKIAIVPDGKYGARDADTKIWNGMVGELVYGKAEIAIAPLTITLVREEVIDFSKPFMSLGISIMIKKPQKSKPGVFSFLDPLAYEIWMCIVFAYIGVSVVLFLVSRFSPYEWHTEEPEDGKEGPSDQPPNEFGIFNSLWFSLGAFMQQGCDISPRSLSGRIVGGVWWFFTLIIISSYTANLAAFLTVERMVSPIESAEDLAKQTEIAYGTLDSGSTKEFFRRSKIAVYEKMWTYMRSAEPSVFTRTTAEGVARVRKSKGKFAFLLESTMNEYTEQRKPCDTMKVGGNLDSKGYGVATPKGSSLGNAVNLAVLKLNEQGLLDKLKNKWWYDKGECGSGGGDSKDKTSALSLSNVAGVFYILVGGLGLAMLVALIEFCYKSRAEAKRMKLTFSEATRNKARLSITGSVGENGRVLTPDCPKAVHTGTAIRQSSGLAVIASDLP

Molecule: COc1cc(CNC(=O)CCCC/C=C/C(C)C)ccc1O [capsaicin]
- Green punctae as signal for Ca2+-channel activity of TRPV1 upon activation ([1]; HEK-293 cells cotransfected with TRPV1, GFP-CaMKII and MLS-NR2B, capsaicin 3 μM or 10 nM with 2 mM Ca2+, 5 minutes): developed green punctae

Molecule: C[C@]12N[C@H](Cc3ccccc31)c1ccccc12 [MK-801]
- Signal generation in presence of NMDA receptor specific inhibitor ([2]; activated with glutamate and glycine, 1 mM AP-5 or 10 μM MK-801): blocked

Molecule: NCC(=O)O [glycine]
- Ca2+ influx / translocation of GFP-α-CaMKII to NR2B upon receptor activation [2]: caused influx of Ca^2+

Molecule: N[C@@H](CCC(=O)O)C(=O)O [glutamate]
- Green punctae (translocation of GFP-CaMKII to MLS-NR2B) upon receptor activation ([3]; HEK-293 cells transfected with GluR4, GFP-CaMKII and MLS-NR2B, 10 μM glutamate with 2 mM Ca2+, about 5 minutes): caused the formation of green punctae
- Ca2+ influx / translocation of GFP-α-CaMKII to NR2B upon receptor activation [2]: caused influx of Ca^2+

Molecule: Oc1cc2c(cc1O)CN(C(=S)NCCc1ccc(Cl)cc1)CCC2 [capsazepine]
- Signal generation due to activation of TRPV1 in presence of inhibitor ([1]; capsazepine 50 μM, preincubated 3 minutes, then capsaicin activation with Ca2+ (FIG. 10)): could be inhibited

Molecule: N#Cc1cc2[nH]c(=O)c(=O)[nH]c2cc1[N+](=O)[O-] [CNQX]
- Generation of the signal in presence of specific inhibitor ([3]; CNQX 50 μM, preincubated 3 minutes, then glutamate activation (FIG. 11)): could be blocked

Molecule: T286D-CaMKII: T286D mutant form of the GFP fusion of α-CaMKII used as Ca2+ sensor
- Cell count (percentage of green cells with binding signal) relative to wild-type GFP-α-CaMKII (MLS-NR2B; ionomycin-mediated Ca2+ influx (FIG. 5)): increased (more than two fold) cell count
- Lowest extracellular [Ca2+] giving response (MLS-NR2B; ionomycin-mediated Ca2+ influx, different extracellular [Ca2+] (FIG. 6)): 2 nM
